Where “and” joins values, the source holds several entries; their conditions need not be identical. Equal values may be shown once.
Legend:
Test in all cases: Kinase inhibition screen, cell-free 33P ATP assay at 10 μM
Format in all cases: biochemical
[1] = biological target: T1, 140 purified human kinases (Homo sapiens, UniProt O43318)
T1 sequence (O43318 1-606): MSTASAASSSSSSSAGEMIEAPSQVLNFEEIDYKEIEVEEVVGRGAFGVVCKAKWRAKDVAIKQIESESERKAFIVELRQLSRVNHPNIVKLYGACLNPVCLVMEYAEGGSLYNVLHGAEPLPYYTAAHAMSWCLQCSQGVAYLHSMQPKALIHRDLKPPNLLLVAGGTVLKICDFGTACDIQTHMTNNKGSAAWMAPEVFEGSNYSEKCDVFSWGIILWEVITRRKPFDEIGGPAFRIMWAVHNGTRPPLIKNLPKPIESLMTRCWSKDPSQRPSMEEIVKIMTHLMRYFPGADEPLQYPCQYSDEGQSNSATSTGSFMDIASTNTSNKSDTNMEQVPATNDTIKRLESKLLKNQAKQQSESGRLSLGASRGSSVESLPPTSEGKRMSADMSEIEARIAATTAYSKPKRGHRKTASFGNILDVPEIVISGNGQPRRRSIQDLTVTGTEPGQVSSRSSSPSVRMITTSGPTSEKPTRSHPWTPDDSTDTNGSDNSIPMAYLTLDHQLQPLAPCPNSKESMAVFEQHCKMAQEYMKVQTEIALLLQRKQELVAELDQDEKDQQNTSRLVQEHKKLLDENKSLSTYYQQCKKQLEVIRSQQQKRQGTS
Outline: (§1)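 Each complex tested in duplicate at 10 μM; cell-free radiometric assay using ^33P ATP on purified enzymes. Hits mapped by HGNC symbol onto the kinome tree.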

[2] = biological target: 140 purified human kinases (Homo sapiens, UniProt P04629); settings: TrkA
Outline: as §1

[3] = biological target: 140 purified human kinases (Homo sapiens, UniProt P11362)
Outline: as §1

[4] = biological target: 140 purified human kinases (Homo sapiens, UniProt Q02750)
Outline: as §1

[5] = biological target: T2, 140 purified human kinases (Homo sapiens, UniProt Q14164); settings: IKKe
T2 sequence (Q14164 1-716): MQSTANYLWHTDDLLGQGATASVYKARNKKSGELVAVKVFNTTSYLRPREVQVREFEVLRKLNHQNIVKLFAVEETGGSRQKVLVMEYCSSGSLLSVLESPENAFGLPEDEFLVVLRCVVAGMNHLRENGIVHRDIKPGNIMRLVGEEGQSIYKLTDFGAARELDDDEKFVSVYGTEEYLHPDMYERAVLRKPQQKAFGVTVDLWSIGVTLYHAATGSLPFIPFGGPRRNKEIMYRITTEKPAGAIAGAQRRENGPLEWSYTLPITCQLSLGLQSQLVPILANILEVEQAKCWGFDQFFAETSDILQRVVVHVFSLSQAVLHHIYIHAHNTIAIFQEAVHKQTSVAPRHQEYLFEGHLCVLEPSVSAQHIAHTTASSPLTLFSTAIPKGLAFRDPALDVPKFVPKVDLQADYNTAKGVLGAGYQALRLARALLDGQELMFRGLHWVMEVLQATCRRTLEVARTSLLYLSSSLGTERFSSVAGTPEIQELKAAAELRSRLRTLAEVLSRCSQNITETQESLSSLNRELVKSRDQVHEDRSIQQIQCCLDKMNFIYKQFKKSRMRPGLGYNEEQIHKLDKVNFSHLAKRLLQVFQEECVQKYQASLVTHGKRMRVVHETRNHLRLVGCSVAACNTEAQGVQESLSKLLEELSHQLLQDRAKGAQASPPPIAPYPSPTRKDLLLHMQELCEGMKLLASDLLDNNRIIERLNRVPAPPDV
Outline: as §1

[6] = biological target: T3, 140 purified human kinases (Homo sapiens, UniProt Q92630)
T3 sequence (Q92630 1-601): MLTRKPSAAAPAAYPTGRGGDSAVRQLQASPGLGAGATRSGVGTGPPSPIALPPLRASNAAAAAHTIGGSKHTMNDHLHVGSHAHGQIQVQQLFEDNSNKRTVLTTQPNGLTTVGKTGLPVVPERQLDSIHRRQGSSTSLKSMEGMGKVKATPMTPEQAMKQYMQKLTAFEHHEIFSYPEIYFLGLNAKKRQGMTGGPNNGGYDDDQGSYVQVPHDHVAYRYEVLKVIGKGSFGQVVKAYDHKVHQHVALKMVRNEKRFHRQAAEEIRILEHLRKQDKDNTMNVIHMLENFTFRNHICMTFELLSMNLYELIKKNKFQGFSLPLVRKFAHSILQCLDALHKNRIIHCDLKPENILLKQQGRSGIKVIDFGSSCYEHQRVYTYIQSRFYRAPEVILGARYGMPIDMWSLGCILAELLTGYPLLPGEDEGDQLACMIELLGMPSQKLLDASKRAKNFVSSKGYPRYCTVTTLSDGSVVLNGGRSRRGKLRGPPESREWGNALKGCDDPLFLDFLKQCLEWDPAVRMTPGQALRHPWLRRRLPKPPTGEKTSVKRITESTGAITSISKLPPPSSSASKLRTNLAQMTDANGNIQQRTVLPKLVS
Outline: as §1

[7] = biological target: 140 purified human kinases (Homo sapiens, UniProt Q9H2X6)
Outline: as §1

[8] = system: 140 purified human kinases; settings: PHK
Outline: as §1

140 purified human kinases (Homo sapiens, UniProt Q9H2X6), sequence (Q9H2X6 whole entry): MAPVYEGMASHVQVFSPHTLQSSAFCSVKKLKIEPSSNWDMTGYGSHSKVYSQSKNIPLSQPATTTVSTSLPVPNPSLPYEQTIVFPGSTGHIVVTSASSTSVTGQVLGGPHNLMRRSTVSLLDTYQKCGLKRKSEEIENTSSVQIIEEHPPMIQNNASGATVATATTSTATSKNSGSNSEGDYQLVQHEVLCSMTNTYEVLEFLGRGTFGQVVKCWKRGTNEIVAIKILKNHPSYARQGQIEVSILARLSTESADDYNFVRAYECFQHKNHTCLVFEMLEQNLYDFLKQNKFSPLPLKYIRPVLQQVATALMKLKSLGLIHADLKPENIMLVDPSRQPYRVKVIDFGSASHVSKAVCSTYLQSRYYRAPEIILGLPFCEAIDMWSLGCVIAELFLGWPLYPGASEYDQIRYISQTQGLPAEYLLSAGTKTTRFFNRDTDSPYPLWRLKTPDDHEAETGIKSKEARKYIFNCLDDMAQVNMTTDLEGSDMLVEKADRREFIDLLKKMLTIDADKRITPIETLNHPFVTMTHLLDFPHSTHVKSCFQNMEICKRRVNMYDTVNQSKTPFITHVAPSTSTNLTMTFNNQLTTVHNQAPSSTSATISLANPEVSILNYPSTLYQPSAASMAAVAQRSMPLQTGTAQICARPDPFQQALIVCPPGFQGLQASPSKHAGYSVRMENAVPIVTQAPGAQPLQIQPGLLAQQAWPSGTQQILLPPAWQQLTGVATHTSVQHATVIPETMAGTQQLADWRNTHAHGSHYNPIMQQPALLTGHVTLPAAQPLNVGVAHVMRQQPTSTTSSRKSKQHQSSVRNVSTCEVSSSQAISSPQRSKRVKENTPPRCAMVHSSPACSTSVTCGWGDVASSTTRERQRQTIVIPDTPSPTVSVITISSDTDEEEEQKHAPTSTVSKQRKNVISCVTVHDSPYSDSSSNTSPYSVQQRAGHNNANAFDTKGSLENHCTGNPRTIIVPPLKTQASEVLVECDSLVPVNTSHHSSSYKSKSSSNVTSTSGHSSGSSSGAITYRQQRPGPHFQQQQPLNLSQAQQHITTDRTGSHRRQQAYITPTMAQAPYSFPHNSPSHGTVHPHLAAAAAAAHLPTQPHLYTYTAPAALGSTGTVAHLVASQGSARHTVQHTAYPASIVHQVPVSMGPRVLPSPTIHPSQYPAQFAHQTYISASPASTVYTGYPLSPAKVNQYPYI
140 purified human kinases (Homo sapiens, UniProt P11362), sequence (P11362 22-822): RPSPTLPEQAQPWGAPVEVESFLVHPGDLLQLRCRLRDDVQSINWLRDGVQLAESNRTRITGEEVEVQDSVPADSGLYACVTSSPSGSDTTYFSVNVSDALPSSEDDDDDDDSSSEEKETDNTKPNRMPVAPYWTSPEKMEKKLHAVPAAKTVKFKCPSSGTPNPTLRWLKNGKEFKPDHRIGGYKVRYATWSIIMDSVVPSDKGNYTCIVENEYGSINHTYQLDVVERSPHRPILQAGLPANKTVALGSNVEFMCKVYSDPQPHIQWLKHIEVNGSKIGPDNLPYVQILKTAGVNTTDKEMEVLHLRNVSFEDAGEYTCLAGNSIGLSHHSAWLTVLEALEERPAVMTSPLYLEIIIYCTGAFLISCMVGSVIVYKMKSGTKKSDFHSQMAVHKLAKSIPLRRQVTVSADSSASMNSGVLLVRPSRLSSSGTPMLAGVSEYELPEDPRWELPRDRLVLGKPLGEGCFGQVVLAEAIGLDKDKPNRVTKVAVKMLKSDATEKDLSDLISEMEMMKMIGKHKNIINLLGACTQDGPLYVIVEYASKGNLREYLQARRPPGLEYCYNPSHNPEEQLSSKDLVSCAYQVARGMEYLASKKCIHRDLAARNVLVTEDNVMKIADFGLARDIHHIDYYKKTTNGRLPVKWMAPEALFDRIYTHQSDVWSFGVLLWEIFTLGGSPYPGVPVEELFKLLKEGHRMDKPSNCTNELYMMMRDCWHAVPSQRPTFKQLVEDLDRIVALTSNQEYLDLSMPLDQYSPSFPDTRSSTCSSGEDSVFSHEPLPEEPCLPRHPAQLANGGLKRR
140 purified human kinases (Homo sapiens, UniProt P04629), sequence (P04629 33-796): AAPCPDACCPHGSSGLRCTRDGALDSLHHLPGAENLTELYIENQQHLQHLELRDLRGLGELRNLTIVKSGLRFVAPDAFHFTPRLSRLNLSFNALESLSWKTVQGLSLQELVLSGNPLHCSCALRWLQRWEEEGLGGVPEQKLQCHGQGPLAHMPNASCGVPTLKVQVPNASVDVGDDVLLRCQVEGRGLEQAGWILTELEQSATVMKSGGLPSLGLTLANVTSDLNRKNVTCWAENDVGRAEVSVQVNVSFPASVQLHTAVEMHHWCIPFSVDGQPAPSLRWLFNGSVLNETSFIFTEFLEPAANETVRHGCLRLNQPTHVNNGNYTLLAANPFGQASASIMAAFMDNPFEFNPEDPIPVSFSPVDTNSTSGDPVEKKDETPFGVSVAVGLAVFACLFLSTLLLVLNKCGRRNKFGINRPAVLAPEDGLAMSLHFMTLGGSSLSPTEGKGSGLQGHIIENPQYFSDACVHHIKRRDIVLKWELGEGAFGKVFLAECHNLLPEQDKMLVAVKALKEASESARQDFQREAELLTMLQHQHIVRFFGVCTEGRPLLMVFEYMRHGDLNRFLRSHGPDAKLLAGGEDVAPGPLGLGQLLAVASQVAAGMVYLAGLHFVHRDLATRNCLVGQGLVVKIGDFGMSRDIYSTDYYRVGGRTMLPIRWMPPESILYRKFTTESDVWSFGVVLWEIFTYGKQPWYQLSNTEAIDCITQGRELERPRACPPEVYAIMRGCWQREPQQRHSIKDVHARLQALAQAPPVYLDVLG
140 purified human kinases (Homo sapiens, UniProt Q02750), sequence (Q02750 whole entry): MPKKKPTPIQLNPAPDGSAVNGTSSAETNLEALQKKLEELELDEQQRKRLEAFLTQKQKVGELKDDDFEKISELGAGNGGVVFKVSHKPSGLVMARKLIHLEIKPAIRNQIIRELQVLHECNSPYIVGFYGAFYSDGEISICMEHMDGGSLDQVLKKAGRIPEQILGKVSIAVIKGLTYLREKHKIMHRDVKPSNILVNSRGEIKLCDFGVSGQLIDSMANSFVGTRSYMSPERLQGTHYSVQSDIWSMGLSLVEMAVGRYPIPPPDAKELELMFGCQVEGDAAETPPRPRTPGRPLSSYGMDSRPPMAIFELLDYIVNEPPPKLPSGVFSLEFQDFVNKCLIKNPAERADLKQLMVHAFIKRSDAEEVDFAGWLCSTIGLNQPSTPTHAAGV

Structure (SMILES): [Cu+2].[Cu+2].[Cu+2].c1ccc(-c2csc(NCCN(CCNc3nc(-c4ccccn4)cs3)CCNc3nc(-c4ccccn4)cs3)n2)nc1.c1ccc(-c2csc(NCCN(CCNc3nc(-c4ccccn4)cs3)CCNc3nc(-c4ccccn4)cs3)n2)nc1 [[L2Cu3]6+]
- % Inhibition Run 1 ([1]; TAK1): 45.7%
- % Inhibition Run 2 ([1]; TAK1): 51.7%
- % Inhibition, Mean ([1]; TAK1): 49%
- mean % activity ([1]; TAK1): 51%
- % activity ([1]; TAK1, Run 1): 54.3%
- % activity ([1]; TAK1, Run 2): 48.3%
- % Inhibition Run 1 [2]: 78.1%
- % Inhibition Run 2 [2]: 61.2%
- % Inhibition, Mean [2]: 70%
- mean % activity [2]: 30%
- % activity ([2]; Run 1): 21.9%
- % activity ([2]; Run 2): 38.8%
- % Inhibition Run 1 ([3]; FGF-R1): 63.7%
- % Inhibition Run 2 ([3]; FGF-R1): 61.4%
- % Inhibition, Mean ([3]; FGF-R1): 63%
- mean % activity ([3]; FGF-R1): 37%
- % activity ([3]; FGF-R1, Run 1): 36.3%
- % activity ([3]; FGF-R1, Run 2): 38.6%
- % Inhibition Run 1 ([4]; MKK1): 34%
- % Inhibition Run 2 ([4]; MKK1): 8.9%
- % Inhibition, Mean ([4]; MKK1): 21%
- mean % activity ([4]; MKK1): 79%
- % activity ([4]; MKK1, Run 1): 66%
- % activity ([4]; MKK1, Run 2): 91.1%
- % Inhibition Run 1 [5]: 69.9%
- % Inhibition Run 2 [5]: 53.3%
- % Inhibition, Mean [5]: 62%
- mean % activity [5]: 38%
- % activity ([5]; Run 1): 30.1%
- % activity ([5]; Run 2): 46.7%
- % Inhibition Run 1 ([6]; DYRK2): 27.2%
- % Inhibition Run 2 ([6]; DYRK2): -2.7%
- % Inhibition, Mean ([6]; DYRK2): 12%
- mean % activity ([6]; DYRK2): 88%
- % activity ([6]; DYRK2, Run 1): 72.8%
- % activity ([6]; DYRK2, Run 2): 102.7%
- % Inhibition Run 1 ([7]; HIPK2): 50.5%
- % Inhibition Run 2 ([7]; HIPK2): 45.5%
- % Inhibition, Mean ([7]; HIPK2): 48%
- mean % activity ([7]; HIPK2): 52%
- % activity ([7]; HIPK2, Run 1): 49.5%
- % activity ([7]; HIPK2, Run 2): 54.5%
- % activity ([8]; Run 1): 40.1%
- % activity ([8]; Run 2): 50.7%

Structure (SMILES): CC(=O)[O-].CC(=O)[O-].CC(=O)[O-].CC(=O)[O-].CC(=O)[O-].CC(=O)[O-].[Zn+2].[Zn+2].[Zn+2].c1ccc(-c2csc(NCCN(CCNc3nc(-c4ccccn4)cs3)CCNc3nc(-c4ccccn4)cs3)n2)nc1.c1ccc(-c2csc(NCCN(CCNc3nc(-c4ccccn4)cs3)CCNc3nc(-c4ccccn4)cs3)n2)nc1 [[L2Zn3]6+]
- % Inhibition, Mean ([1]; TAK1): 35%
- % Inhibition, Run 1 / Run 2 ([1]; TAK1): 34% and 36%
- mean % activity ([1]; TAK1): 65%
- % activity ([1]; TAK1, duplicate runs): 66% and 64%
- % Inhibition, Mean [2]: 87%
- % Inhibition, Run 1 / Run 2 [2]: 88% and 86%
- mean % activity [2]: 13%
- % Activity inhibition Mean ([2]; 10 µM): 86.5%
- % Activity inhibition Run 1 ([2]; 10 µM): 88%
- % Activity inhibition Run 2 ([2]; 10 µM): 85%
- % Activity remaining Run 1 ([2]; 10 µM): 12%
- % Activity remaining Run 2 ([2]; 10 µM): 15%
- % activity ([2]; duplicate runs): 12% and 15%
- % Inhibition, Mean ([3]; FGF-R1): 82%
- % Inhibition, Run 1 / Run 2 ([3]; FGF-R1): 88% and 76%
- mean % activity ([3]; FGF-R1): 18%
- % Activity inhibition Mean ([3]; FGF-R1, 10 µM): 81.5%
- % Activity inhibition Run 1 ([3]; FGF-R1, 10 µM): 87%
- % Activity inhibition Run 2 ([3]; FGF-R1, 10 µM): 76%
- % Activity remaining Run 1 ([3]; FGF-R1, 10 µM): 13%
- % Activity remaining Run 2 ([3]; FGF-R1, 10 µM): 24%
- % activity ([3]; FGF-R1, duplicate runs): 13% and 24%
- % Activation, Mean value ([4]; MKK1): 3%
- % Inhibition, Mean ([4]; MKK1): -3%
- % Inhibition, Run 1 / Run 2 ([4]; MKK1): -3%
- mean % activity ([4]; MKK1): 103%
- % activity ([4]; MKK1, duplicate runs): 103%
- % Inhibition, Mean [5]: 21%
- mean % activity [5]: 79%
- % activity ([5]; duplicate runs): 69% and 89%
- % Activation, Mean value ([6]; DYRK2): 4.5%
- % Inhibition, Mean ([6]; DYRK2): -4.5%
- mean % activity ([6]; DYRK2): 105%
- % activity ([6]; DYRK2, duplicate runs): 97% and 112%
- % Inhibition, Mean ([7]; HIPK2): 12%
- mean % activity ([7]; HIPK2): 88%
- % activity ([7]; HIPK2, duplicate runs): 76% and 100%
- % Inhibition, Run 1 / Run 2 [8]: 68% and 61%

— PMC8222254, “Self-assembly of an anion receptor with metal-dependent kinase inhibition and potent in vitro anti-cancer properties” (Nature Communications, 2021)
